Data: PMC6943736, “Bio-Guided Isolation of Prospective Bioactive Constituents from Roots of Clausena indica (Dalzell) Oliv” (Molecules, 2019)

Molecular target: tyrosinase
Assay: enzyme assay with L-tyrosine substrate, […] nm
Assay type: biochemical

With COc1ccc2c(c1)[nH]c1cc(OC)c(C(=O)O)cc12 [L3, Clausine K] the “Tyrosinase Inhibition IC50” value was 179.5 µg/mL.
